Publication PMC8951032, “Study of Biological Activities and ADMET-Related Properties of Novel Chlorinated N-arylcinnamamides” (International Journal of Molecular Sciences, 2022)

Key:
[1] = Lipophilicity determination by RP-HPLC (log k, log D); assay type: physicochemical; details: for log k: MeOH 72%/H2O 28%; for log D6.5: MeOH 72%/acetate buffered saline pH 6.5; for log D7.4: MeOH 72%/acetate buffered saline pH 7.4
Protocol: In addition to the mentioned ADME profile, it is responsible for interactions with biological targets. Lipophilicity is recognized as one of the most important parameters influencing ADME and bioactivity and is also part, e.g., of Lipinski’s Rule of Five (Ro5). This thermodynamic parameter describing the molecule’s affinity for an aqueous or relatively lipophilic environment can be characterized by the logarithm of the partition coefficient (log P). In this study, lipophilicity was measured by reversed-phase high-performance liquid chromatography (RP-HPLC) under isocratic conditions with methanol as the organic modifier in the aqueous mobile phase and the logarithm of the capacity factor k was calculated, which is used as the lipophilicity index converted to the log P scale. In addition to the log k values, the logarithm of the distribution coefficient DpH at pH 6.5 and 7.4 was determined to clarify the behavior of the compounds under physiological conditions and possible ionization. Instead of water, a buffer of suitable pH was used as part of the mobile phase. In addition to the above-mentioned experimental methods, commercially available ChemBioDraw Ultra 13.0 and ACD/Percepta ver. 2012 programs were used to calculate the lipophilicity values of all prepared compounds.
A HPLC separation module Waters Alliance 2695 XE equipped with a Waters Dual Absorbance Detector 2486 (Waters Corp., Milford, MA, USA) was used. A chromatographic column Symmetry® C18 5 μm, 4.6 × 250 mm, Part No. W21751W016 (Waters Corp., Milford, MA, USA) was used. The HPLC separation process was monitored by Empower® 3 Chromatography Manager Software (Waters Corp.). Isocratic elution by a mixture of MeOH p.a. (72%) and H2O-HPLC Mili-Q grade (28%) as a mobile phase was used for the determination of capacity factor k. Isocratic elution by a mixture of MeOH p.a. (72%) and acetate buffered saline (pH 7.4 and pH 6.5) (28%) as a mobile phase was used for the determination of distribution coefficient expressed as D7.4 and D6.5. The total flow of the column was 1.0 mL/min, injection 20 μL, column temperature 40 °C, and sample temperature 10 °C. The detection wavelength of 210 nm was chosen. A KI methanolic solution was used for the determination of the dead times (tD). Retention times (tR) were measured in minutes. The capacity factors k were calculated according to the formula k = (tR − tD)/tD, where tR is the retention time of the solute, and tD is the dead time obtained using an unretained analyte. The distribution coefficients DpH were calculated according to the formula DpH = (tR − tD)/tD. Each experiment was repeated three times.

THP-1 cells = assay: Cell death assay by flow cytometry (Annexin V / LIVE/DEAD); assay type: cell-based, human; details: serum-free medium, 24 h
Protocol: Subsequently, compounds 2k and 2q were selected for analysis by flow cytometry and cytotoxic effects were detected after treatment of cells by 2k and 2q in serum-free medium at two selected concentrations, 1.0 µM and 0.5 µM, respectively. […] Moreover, 2k increased the number of dead cells (20%) (Figure 2). […] Thus, it can be assumed that 2k attenuates cell metabolism.
Annexin V eFluor450 (Invitrogene, Waltham, MA, USA) with LIVE/DEAD Fixable Far Red Dead Cell Stain Kit (Invitrogene) were used for the analysis of cell death. THP-1 cells resuspended in serum-free medium and treated by two selected drugs, such as 2q and 2k, by IC50 concentrations, 0.5 µM and 1.0 µM, respectively, for 24 h. Cells were double-stained by AnnexinV eFluor 450 (1:20) and LIVE/DEAD Fixable Far Red (3:1000). Finally, the cells were analysed by flow cytometer (Amnis CellStream; Luminex, Austin, TX, USA) and the data were evaluated by CellStream Analysis 1.2.55 software. The dot plots were divided into four quadrants. Live cells (low left quadrant), apoptosis (upper-left quadrant) and necrosis as a terminal stage of cell death (upper-right quadrant) were distinguished. Experiments were performed in duplicates and in three independent repetitions.

log k [1]	log D6.5 [1]	log D7.4 [1]	SMILES	number of dead cells (THP-1 cells; 2k 1.0 µM) [%]	apoptosis (in words) (THP-1 cells; 2q 0.5 µM)	necrosis (in words) (THP-1 cells; 2q 0.5 µM)
0.6199	0.6669	0.6354	O=C(/C=C/c1ccc(Cl)c(Cl)c1)Nc1ccccc1 [2a, (2E)-3-(3,4-Dichlorophenyl)-N-phenylprop-2-enamide]	–	–	–
0.9873	0.9915	0.9505	O=C(/C=C/c1ccc(Cl)c(Cl)c1)Nc1cccc(C(F)(F)F)c1 [2i, (2E)-3-(3,4-Dichlorophenyl)-N-[3-(trifluoromethyl)phenyl]prop-2-enamide]	–	–	–
1.0364	1.0370	0.9945	O=C(/C=C/c1ccc(Cl)c(Cl)c1)Nc1ccc(C(F)(F)F)cc1 [2j, (2E)-3-(3,4-Dichlorophenyl)-N-[4-(trifluoromethyl)phenyl]prop-2-enamide]	–	–	–
1.0513	1.0544	1.0053	O=C(/C=C/c1ccc(Cl)c(Cl)c1)Nc1ccc(OC(F)(F)F)cc1 [2k, (2E)-3-(3,4-Dichlorophenyl)-N-[4-(trifluoromethoxy)phenyl]prop-2-enamide]	20	–	–
1.4731	1.4967	1.4717	O=C(/C=C/c1ccc(Cl)c(Cl)c1)Nc1cc(C(F)(F)F)cc(C(F)(F)F)c1 [2q, (2E)-N-[3,5-bis(Trifluoromethyl)phenyl]-3-(3,4-dichlorophenyl)prop-2-enamide]	–	not observed	significantly induced

More lines, now with the values behind:

SMILES	log k [1]	log D6.5 [1]	log D7.4 [1]	number of dead cells (THP-1 cells; 2k 1.0 µM) [%]	apoptosis (in words) (THP-1 cells; 2q 0.5 µM)	necrosis (in words) (THP-1 cells; 2q 0.5 µM)
O=C(/C=C/c1ccc(Cl)cc1)Nc1cccc(C(F)(F)F)c1 [1i, (2E)-3-(4-Chlorophenyl)-N-[3-(trifluoromethyl)phenyl]prop-2-enamide]	0.8612	0.8071	0.8105	–	–	–
O=C(/C=C/c1ccc(Cl)cc1)Nc1cc(Cl)cc(Cl)c1 [1p, (2E)-3-(4-Chlorophenyl)-N-(3,5-dichlorophenyl)prop-2-enamide]	1.1899	1.1368	1.1366	–	–	–
O=C(/C=C/c1ccc(Cl)cc1)Nc1cc(C(F)(F)F)cc(C(F)(F)F)c1 [1q, (2E)-N-[3,5-bis(Trifluoromethyl)phenyl]-3-(4-chlorophenyl)prop-2-enamide]	1.3064	1.2925	1.2980	–	–	–
